Reference: ChEMBL document CHEMBL5291721, “A preclinical secondary pharmacology resource illuminates target-adverse drug reaction associations of marketed drugs” (Nat Commun, 2023)

How the values were obtained:
[1] = biological target: Beta-1 adrenergic receptor (Homo sapiens, UniProt P08588); format: functional
Progesterone receptor = biological target: T1, Progesterone receptor (Homo sapiens, UniProt P06401); format: functional
T1 sequence (P06401 whole entry): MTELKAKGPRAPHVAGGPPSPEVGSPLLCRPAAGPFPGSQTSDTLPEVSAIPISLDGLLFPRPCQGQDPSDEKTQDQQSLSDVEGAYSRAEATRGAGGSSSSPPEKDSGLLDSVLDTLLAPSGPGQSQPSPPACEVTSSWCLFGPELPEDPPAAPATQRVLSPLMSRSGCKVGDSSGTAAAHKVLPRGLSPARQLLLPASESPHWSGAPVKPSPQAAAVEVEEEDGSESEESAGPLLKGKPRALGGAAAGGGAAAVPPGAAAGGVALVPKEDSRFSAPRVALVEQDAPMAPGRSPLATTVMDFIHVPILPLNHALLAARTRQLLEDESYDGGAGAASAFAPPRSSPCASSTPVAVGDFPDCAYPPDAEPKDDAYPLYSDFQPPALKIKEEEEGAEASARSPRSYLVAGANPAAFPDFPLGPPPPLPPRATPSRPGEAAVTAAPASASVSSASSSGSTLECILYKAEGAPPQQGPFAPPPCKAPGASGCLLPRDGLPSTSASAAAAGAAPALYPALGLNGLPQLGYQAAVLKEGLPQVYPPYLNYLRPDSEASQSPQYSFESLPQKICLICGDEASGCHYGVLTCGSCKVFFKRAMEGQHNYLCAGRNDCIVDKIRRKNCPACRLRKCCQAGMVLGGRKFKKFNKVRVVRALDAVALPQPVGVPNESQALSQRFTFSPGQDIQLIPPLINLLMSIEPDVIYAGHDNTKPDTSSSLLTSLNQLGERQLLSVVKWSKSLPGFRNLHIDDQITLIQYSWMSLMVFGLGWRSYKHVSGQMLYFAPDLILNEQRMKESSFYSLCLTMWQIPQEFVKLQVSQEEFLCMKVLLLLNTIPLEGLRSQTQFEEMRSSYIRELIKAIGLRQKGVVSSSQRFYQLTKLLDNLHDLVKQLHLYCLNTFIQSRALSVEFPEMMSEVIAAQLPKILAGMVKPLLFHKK

[2] = biological target: Muscarinic acetylcholine receptor M3 (Homo sapiens, UniProt P20309)
Sequence of Muscarinic acetylcholine receptor M3 (P20309 whole entry): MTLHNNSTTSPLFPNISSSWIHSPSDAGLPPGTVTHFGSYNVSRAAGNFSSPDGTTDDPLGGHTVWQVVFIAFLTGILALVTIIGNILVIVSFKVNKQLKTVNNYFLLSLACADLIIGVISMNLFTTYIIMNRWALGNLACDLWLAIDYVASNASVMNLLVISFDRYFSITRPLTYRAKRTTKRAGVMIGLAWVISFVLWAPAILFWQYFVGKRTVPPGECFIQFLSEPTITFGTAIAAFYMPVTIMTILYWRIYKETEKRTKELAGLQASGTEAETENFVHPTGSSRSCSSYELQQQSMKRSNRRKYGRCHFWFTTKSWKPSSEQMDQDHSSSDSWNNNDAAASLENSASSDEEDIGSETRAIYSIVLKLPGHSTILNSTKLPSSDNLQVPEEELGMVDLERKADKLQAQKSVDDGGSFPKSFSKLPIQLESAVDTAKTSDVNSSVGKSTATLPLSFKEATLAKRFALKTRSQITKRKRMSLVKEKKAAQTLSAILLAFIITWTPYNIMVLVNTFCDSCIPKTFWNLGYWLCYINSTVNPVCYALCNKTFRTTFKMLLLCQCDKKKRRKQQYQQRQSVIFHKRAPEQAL

Cannabinoid receptor 1 = Cannabinoid receptor 1 (Homo sapiens, UniProt P21554)
Sequence of Cannabinoid receptor 1 (P21554 whole entry): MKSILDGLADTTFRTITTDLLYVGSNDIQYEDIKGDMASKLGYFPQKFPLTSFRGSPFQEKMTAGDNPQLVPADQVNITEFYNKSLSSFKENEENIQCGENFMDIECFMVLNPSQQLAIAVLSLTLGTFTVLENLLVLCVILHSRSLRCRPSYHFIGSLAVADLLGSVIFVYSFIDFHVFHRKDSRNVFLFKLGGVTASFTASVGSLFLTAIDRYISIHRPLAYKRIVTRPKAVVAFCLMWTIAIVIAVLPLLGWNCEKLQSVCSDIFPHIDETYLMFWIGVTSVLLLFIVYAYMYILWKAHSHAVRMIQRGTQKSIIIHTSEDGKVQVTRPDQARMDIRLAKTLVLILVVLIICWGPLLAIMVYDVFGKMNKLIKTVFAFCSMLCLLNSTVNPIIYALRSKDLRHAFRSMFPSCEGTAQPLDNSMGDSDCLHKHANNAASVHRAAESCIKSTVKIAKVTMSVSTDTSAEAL

Thromboxane A2 receptor = biological target: T2, Thromboxane A2 receptor (Homo sapiens, UniProt P21731); format: functional, cell-based
T2 sequence (P21731 whole entry): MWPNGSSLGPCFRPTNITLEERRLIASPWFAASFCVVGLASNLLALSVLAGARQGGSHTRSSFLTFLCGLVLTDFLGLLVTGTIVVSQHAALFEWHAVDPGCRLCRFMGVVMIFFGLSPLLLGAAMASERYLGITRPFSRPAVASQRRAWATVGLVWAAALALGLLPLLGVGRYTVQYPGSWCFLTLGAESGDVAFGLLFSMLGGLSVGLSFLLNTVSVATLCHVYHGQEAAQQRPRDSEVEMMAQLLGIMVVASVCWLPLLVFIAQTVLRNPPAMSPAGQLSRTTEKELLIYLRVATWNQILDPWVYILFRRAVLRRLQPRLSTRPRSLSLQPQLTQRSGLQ

[3] = biological target: Sodium-dependent noradrenaline transporter (Homo sapiens, UniProt P23975)
Sequence of Sodium-dependent noradrenaline transporter (P23975 whole entry): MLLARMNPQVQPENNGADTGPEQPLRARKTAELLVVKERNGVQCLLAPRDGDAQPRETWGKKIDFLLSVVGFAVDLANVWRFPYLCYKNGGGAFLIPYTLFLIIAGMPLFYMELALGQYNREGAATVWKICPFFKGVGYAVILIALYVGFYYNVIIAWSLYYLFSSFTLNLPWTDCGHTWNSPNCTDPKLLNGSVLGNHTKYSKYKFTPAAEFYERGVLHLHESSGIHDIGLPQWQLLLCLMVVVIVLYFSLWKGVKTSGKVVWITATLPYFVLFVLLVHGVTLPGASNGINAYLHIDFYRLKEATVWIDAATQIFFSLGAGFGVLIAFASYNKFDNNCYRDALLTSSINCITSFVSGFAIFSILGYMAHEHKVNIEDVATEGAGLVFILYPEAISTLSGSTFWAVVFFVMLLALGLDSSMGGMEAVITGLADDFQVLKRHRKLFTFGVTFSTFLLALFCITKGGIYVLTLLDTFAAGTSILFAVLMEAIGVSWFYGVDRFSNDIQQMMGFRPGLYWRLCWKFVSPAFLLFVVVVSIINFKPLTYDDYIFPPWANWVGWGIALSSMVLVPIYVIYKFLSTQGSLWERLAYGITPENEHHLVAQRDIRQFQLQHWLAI

[4] = biological target: Sodium-dependent dopamine transporter (Homo sapiens, UniProt Q01959)
Sequence of Sodium-dependent dopamine transporter (Q01959 whole entry): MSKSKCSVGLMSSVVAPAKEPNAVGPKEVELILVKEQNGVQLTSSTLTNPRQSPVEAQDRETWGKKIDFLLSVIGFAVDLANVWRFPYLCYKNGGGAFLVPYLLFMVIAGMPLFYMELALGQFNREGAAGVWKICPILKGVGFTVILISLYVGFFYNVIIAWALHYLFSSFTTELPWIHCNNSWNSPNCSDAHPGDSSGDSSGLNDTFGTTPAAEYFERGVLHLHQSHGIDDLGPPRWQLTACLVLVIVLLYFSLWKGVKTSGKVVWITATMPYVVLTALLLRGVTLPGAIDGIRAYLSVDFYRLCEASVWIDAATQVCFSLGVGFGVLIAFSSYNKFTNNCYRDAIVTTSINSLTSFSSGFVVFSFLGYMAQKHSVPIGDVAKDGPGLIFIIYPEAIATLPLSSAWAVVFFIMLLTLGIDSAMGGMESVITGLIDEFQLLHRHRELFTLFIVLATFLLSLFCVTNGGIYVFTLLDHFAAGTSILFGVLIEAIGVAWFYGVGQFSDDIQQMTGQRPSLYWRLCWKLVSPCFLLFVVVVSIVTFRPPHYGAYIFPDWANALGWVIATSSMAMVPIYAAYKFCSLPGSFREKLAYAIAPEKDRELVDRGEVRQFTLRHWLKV

D(3) dopamine receptor = D(3) dopamine receptor (Homo sapiens, UniProt P35462)
Sequence of D(3) dopamine receptor (P35462 whole entry): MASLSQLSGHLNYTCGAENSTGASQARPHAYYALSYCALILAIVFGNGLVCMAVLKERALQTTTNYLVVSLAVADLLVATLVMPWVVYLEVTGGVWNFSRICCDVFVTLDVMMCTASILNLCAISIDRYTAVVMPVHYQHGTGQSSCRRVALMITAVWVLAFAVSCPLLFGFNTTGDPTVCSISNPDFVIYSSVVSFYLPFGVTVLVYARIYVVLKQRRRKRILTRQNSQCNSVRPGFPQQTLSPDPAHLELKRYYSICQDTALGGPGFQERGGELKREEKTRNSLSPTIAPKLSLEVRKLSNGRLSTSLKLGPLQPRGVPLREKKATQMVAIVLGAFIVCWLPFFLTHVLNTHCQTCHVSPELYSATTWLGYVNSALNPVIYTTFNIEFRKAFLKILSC

[5] = biological target: T3, Amine oxidase [flavin-containing] A (Homo sapiens, UniProt P21397); format: functional
T3 sequence (P21397 whole entry): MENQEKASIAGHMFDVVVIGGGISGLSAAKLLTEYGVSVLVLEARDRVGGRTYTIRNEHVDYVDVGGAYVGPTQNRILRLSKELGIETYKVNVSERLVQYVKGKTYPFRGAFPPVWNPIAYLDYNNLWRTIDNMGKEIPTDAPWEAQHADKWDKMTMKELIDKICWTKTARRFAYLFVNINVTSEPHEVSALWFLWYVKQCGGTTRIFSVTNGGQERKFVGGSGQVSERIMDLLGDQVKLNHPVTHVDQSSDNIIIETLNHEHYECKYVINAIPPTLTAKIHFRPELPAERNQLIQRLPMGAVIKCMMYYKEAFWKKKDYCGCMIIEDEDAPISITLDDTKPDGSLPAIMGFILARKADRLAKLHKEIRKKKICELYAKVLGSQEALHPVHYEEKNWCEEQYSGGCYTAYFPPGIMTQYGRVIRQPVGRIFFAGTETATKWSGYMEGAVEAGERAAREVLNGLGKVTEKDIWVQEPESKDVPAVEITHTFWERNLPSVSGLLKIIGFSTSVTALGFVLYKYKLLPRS
Also: assay procedure not described here.

Sequence of Beta-1 adrenergic receptor (P08588 whole entry): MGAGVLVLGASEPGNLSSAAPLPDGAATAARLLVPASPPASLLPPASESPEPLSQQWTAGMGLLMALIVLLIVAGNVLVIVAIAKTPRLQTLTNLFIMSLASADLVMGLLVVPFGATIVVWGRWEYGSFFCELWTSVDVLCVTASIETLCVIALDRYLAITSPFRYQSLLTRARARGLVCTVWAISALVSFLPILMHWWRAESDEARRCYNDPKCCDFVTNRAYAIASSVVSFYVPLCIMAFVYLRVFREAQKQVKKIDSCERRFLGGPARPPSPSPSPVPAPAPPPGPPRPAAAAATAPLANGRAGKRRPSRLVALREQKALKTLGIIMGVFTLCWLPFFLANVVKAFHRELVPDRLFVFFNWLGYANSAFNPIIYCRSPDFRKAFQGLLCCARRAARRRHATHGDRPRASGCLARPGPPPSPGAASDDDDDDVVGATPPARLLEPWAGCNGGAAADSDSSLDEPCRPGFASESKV

Work on `C[C@]12CC[C@@H]3c4ccc(O)cc4C[C@@H](CCCCCCCCC[S+]([O-])CCCC(F)(F)C(F)(F)F)[C@H]3[C@@H]1CC[C@@H]2O` (stereo not given in full) [FULVESTRANT] yielded an AC50 [1] greater than 30 µM, an AC50 (Progesterone receptor) greater than 30 µM and an AC50 [2] greater than 30 µM.

`CC12CC3CC(C)(C1)CC(N)(C3)C2` [MEMANTINE] was tested, and the AC50 [1] was greater than 10 µM, the AC50 (Cannabinoid receptor 1) was greater than 10 µM and the AC50 [2] was greater than 30 µM.

Compound `CC(CCc1ccc(O)cc1)NCCc1ccc(O)c(O)c1` (stereo not given) [DOBUTAMINE] has an AC50 [1] of 5.58 µM, an AC50 (Progesterone receptor) greater than 30 µM and an AC50 (Cannabinoid receptor 1) greater than 30 µM.

In the case of `CCC(C)C(CC)C(N)=O` (stereo not given) [VALNOCTAMIDE], the AC50 [1] is reported as greater than 30 µM, the AC50 (Progesterone receptor) is reported as greater than 30 µM and the AC50 [2] is reported as greater than 30 µM.

`CC(=O)O[C@]1(C(C)=O)CC[C@H]2[C@@H]3C=C(Cl)C4=CC(=O)CC[C@]4(C)[C@H]3CC[C@@]21C` [CHLORMADINONE ACETATE] showed an AC50 (Thromboxane A2 receptor) greater than 30 µM, an AC50 [3] greater than 30 µM and an AC50 [4] greater than 30 µM. The AC50 (D(3) dopamine receptor) was greater than 30 µM and the AC50 [5] was greater than 30 µM.

`CCOC(=O)C1=C[C@]2(CC)CCCN3CCc4c(n1c1ccccc41)[C@@H]32` [VINPOCETINE] gave an AC50 [1] greater than 30 µM, an AC50 (Progesterone receptor) greater than 30 µM and an AC50 [2] greater than 30 µM.

`O=[N+]([O-])c1ccc(O)c2ncccc12` [NITROXOLINE] gave an AC50 (Thromboxane A2 receptor) greater than 30 µM, an AC50 [3] greater than 30 µM and an AC50 [4] greater than 30 µM. For the same compound, the AC50 (D(3) dopamine receptor) was 20.4 µM, the AC50 [5] was greater than 30 µM and the AC50 [2] was 7.6 µM.

`CC1(C)S[C@@H]2[C@H](NC(=O)[C@H](N)c3ccccc3)C(=O)N2[C@H]1C(=O)OCOC(=O)[C@@H]1N2C(=O)C[C@H]2S(=O)(=O)C1(C)C` [SULTAMICILLIN] gave an AC50 (Progesterone receptor) greater than 30 µM and an AC50 [2] greater than 30 µM.

Compound `C=C1CC[C@H](O)C/C1=C/C=C1\CCC[C@]2(C)[C@@H]([C@H](C)/C=C/[C@H](C)C(C)C)CC[C@@H]12` [ERGOCALCIFEROL] has an AC50 (Thromboxane A2 receptor) greater than 30 µM, an AC50 [3] greater than 30 µM and an AC50 [4] greater than 30 µM. For the same compound, the AC50 (D(3) dopamine receptor) was greater than 30 µM and the AC50 [5] was greater than 30 µM.

With `Cc1cccc(N2CC(CO)OC2=O)c1` (stereo not given) [TOLOXATONE] the AC50 [1] was greater than 30 µM, the AC50 (Progesterone receptor) was greater than 30 µM and the AC50 [2] was greater than 30 µM.

For `COC(=O)c1ccc(O)cc1` [METHYLPARABEN], the AC50 (Thromboxane A2 receptor) was greater than 30 µM, the AC50 [3] was greater than 30 µM and the AC50 [4] was greater than 30 µM. It also gave an AC50 (D(3) dopamine receptor) greater than 30 µM and an AC50 [5] greater than 30 µM.

In the case of `Oc1ccc2c(c1)CC[C@H](c1ccccc1)[C@@H]2c1ccc(OCCN2CCCC2)cc1` [LASOFOXIFENE], the AC50 [1] is reported as 10 µM, the AC50 (Progesterone receptor) is reported as greater than 30 µM and the AC50 [2] is reported as 11 µM.

For `CC(C(=O)O)c1ccc(-c2ccccc2)c(F)c1` (stereo not given) [FLURBIPROFEN], the AC50 (Thromboxane A2 receptor) was greater than 30 µM, the AC50 [1] was greater than 10 µM and the AC50 [3] was greater than 30 µM. The AC50 [4] was greater than 30 µM, the AC50 (D(3) dopamine receptor) was greater than 30 µM and the AC50 (Cannabinoid receptor 1) was greater than 10 µM. For the same compound, the AC50 [5] was greater than 30 µM.

`CCC[C@H](NC(=O)[C@@H]1[C@H]2CCC[C@H]2CN1C(=O)[C@@H](NC(=O)[C@@H](NC(=O)c1cnccn1)C1CCCCC1)C(C)(C)C)C(=O)C(=O)NC1CC1` gave an AC50 [1] greater than 10 µM, an AC50 (Cannabinoid receptor 1) greater than 10 µM and an AC50 [2] greater than 30 µM.

In the case of `CNCc1ccc(-c2[nH]c3cc(F)cc4c3c2CCNC4=O)cc1` [RUCAPARIB], the AC50 [1] is reported as 40.1 µM and the AC50 (Progesterone receptor) is reported as 15.6 µM.

For `Cc1ccccc1N1CCN(CCc2nnc3n2CCCC3)CC1` [DAPIPRAZOLE], the AC50 (Thromboxane A2 receptor) was greater than 30 µM, the AC50 [3] was greater than 30 µM and the AC50 [4] was greater than 30 µM. It also gave an AC50 (D(3) dopamine receptor) of 16.6 µM and an AC50 [5] greater than 30 µM.

Work on `COc1cc(N)c(Cl)cc1C(=O)NC1CCN(Cc2ccccc2)CC1` [CLEBOPRIDE] yielded an AC50 (Progesterone receptor) greater than 30 µM and an AC50 [2] greater than 30 µM.

In the case of `C#C[C@]1(OC(C)=O)CC[C@H]2[C@@H]3CCC4=C/C(=N/O)CC[C@@H]4[C@H]3CC[C@@]21CC` [NORGESTIMATE], the AC50 [1] is reported as greater than 30 µM and the AC50 (Progesterone receptor) is reported as 0.02 µM.

With `Cc1noc(NS(=O)(=O)c2ccc(N)cc2)c1C` [SULFISOXAZOLE] the AC50 [1] was greater than 10 µM, the AC50 (Progesterone receptor) was greater than 10 µM and the AC50 (Cannabinoid receptor 1) was greater than 10 µM.

With `CC(N)C(O)c1ccccc1` (stereo not given) [PHENYLPROPANOLAMINE] the AC50 [1] was greater than 10 µM and the AC50 (Cannabinoid receptor 1) was greater than 10 µM.
